Converted amounts (≈) assume the structure as drawn. Where two headings read alike, the source gives them in different places.
Tests used:
[1] = MIC against MRSA isolates; assay type: cell-based, S. aureus; conditions: Staphylococcus aureus
Procedure: The MICs of S. aureus ATCC 33591, BAA-44, BAA-1707, BAA-1717, BAA-1720, BAA-1747, BAA-1754, BAA-1761, BAA-1763, BAA-1764, and BAA-1766 were measured using a cell concentration of about 5×10^5 colony forming units (CFU)/mL. In a 96-well microtiter plate, two-fold dilutions were made of each drug (starting with 100 μM) in 100 μL of a cell suspension in trypticase soy broth (TSB). The samples were incubated overnight at 37° C. on a rotary shaking incubator set at 100 revolutions per minute (rpm) and were visually inspected for turbidity. A 20% well-volume of 3-(4,5-dimethylthiazol-2-yl)-2,5-diphenyltetrazolium bromide (MTT reagent, 5 mg/mL) was added, and the samples were incubated for about 20 minutes. The MICs were determined as the lowest concentration at which full visual inhibition was observed by the unaided eye.

[2] = test system: S. pyogenes (ATCC No. 8133); test: MIC against S. pyogenes; assay type: cell-based; conditions: Streptococcus pyogenes, ATCC8133; compound alone
From the text: The error bars in FIG. 12 represent the variations between three replicate determinations.

[3] = test system: S. mutans Ward's 85W 2357; test: Resensitization to antibiotics (log reduction, TABLE 29); assay type: cell-based; conditions: compound 1 μM; Light (2 min)
[4] = test system: MRSA; test: as above; assay type: cell-based, S. aureus
[5] = test system: S. pyogenes ATCC 8133; test: as above; assay type: cell-based; conditions: compound 1 μM; Light (2 min)
[6] = test system: MRSA (ATCC No. BAA-44; ATCC No. BAA-1717); test: Light-activated killing (photodynamic therapy), colony counts; assay type: cell-based, S. aureus; conditions: for Dark Toxicity: no light; for Light Toxicity: white light 2 minutes; for log reduction in the concentration of CFUs: MRSA, FIG. 7
Procedure: Bacterial media was inoculated with bacteria and incubated overnight. The bacterial cultures were diluted to 5×10^8 CFU/mL using a McFarland latex turbidity standard (0.5). Compound 1 was diluted with sterile DMSO, which was added to the cell suspension in a glass culture tube. The cells were then incubated for 30 minutes at 37° C. on a rotary shaking incubator at 150 rpm. 500 μL of the treated cell suspension was added to a well on a sterile ceramic drop plate. Non-coherent white light from a Lumacare™ LC-122 unit was used to irradiate the samples. The end of the light probe was placed 3 cm above the sample well, perpendicular to the surface of the sample, and light was applied for 2 minutes (15 seconds light, 15 seconds dark). 200 μL of the irradiated sample was transferred to a 96-well plastic microtiter plate, and five ten-fold dilutions were made in the media. 10 μL of each dilution was dripped onto an agar media plate and streaked down the plate by tilting the plate down. The agar plates were incubated at 37° C. overnight, and colony counts were performed to calculate the CFU/mL.
Dose-dependent effects of treating bacteria with compound 1 and irradiation with white light were assessed by treating 10^8 CFU/mL of cells with compound 1, followed by irradiation with white light for 2 minutes. Compound 1 was added at a specific concentration to 1 mL of a 10^8 CFU/mL suspension of the respective bacterial cells, and the cells were incubated at 37° C. for approximately 45 minutes on a rotary shaker at 150 rpm. 0.5 mL of the cell suspension was removed and placed into the wells of a sterile ceramic drop plate, and then the cells were irradiated with white light from a Lumacare™ LC 122A light source for 2 minutes at a distance of approximately 3 cm. The time and distance of the light application delivered about 85 J/cm^2 of 400-700 nm light to the sample. After being irradiated, ten-fold dilutions were made of each cell sample. The dilutions were drip-streaked onto a tryptic soy agar (TSA) plate and incubated at 37° C. for 18-24 hours. Enumeration of bacteria was determined from the dilution, which produced a drip-streak containing approximately 30-300 colonies. After counting the colonies, the CFU/mL was calculated by applying the respective dilution factor and a factor of 100 to account for the 10 μL of sample taken. Appropriate controls were prepared, including cells with no treatment, cells with only compound 1 added, and cells only treated with light.

[7] = test system: VRE; test: MIC against VRE; assay type: cell-based, Enterococcus faecalis; conditions: Enterococcus, TABLE 23, read-out: VRE MIC
Procedure: (§1) In a 12×75 mm borosilicate glass culture tube, 1 mL of cell suspension was added. Then, compound 7 was added to the cells, and the samples were mixed using a vortex mixer. […] The samples were incubated overnight at 37° C. on a rotary shaking incubator at 100 rpm.

[8] = test system: P. aeruginosa; test: MIC against P. aeruginosa; assay type: cell-based; conditions: Pseudomonas aeruginosa, read-out: MIC
From the text: Only compound 1 was able to decrease the CFU/mL when used in conjunction with white light to treat P. aeruginosa.

[9] = test system: VRE (ATCC 51299); test: Synergy with antibiotics against VRE; assay type: cell-based, Enterococcus faecalis; conditions: 7.5 μM of compound 8 with vancomycin, tetracycline, or norfloxacin; FIG. 43
Procedure: For these experiments, overnight cultures of VRE were diluted to about 5×10^5 CFU/mL in TSB. Then, 1 mL of the diluted broth suspension was added to a borosilicate glass culture tube. After appropriate volumes of the compounds were added to the broth suspensions, the samples were mixed using a vortex mixer, and an appropriate volume of an antibiotic was added to the samples. The samples were mixed using a vortex mixer and incubated for 18 hours at 37° C. on a rotary shaking incubator. After 18 hours, the test cultures were diluted ten-fold, and 10 μL of each dilution was drip-streaked onto a TSA plate and incubated for 18 hours at 37° C. Colony counts were then performed and the CFU/mL values were calculated.
as §1, with “TABLE 24 details the MICs of common antibiotics against VRE. In” for “In”, “rpm. Inhibition observed visually compared to each individual treatment was considered synergistic.” for “rpm.”

[10] = MRSA (ATCC BAA-44), TABLE 21, read-out: MRSA MIC
[11] = MRSA isolate ATCC BAA-44, read-out: MIC

Question: With `Clc1ccc(/C=C/c2[nH]c3ccccc3c2/C=C/c2ccc(Cl)cc2)cc1` [Compound 1] as the compound, how does the MIC [1, 10] read?
Answer: The MIC was 400 µM (≈ 156 µg/mL).

Question: What about the MIC [1, 11] of the same compound?
Answer: The MIC was 400 µM (≈ 156 µg/mL).

Question: And the MIC [2]?
Answer: Its MIC is 100 µM (≈ 39 µg/mL).

Question: And the “Log Reduction” value [3]?
Answer: The value was 5-6.

Question: And the “Log Reduction” value ([4]; compound 1 μM, MRSA ATCC BAA-44, Light (2 min))?
Answer: The value was 8.

Question: What about the “Log Reduction” value ([4]; compound 10 μM, Dicloxacillin (1 μg/mL)) of the same compound?
Answer: The value was 8.

Question: What about the “Log Reduction” value ([4]; compound 10 μM, Doxycycline (0.1 μg/mL)) of the same compound?
Answer: The value was 4.

Question: What about the “Log Reduction” value ([4]; compound 10 μM, Vancomycin (0.5 μg/mL)) of the same compound?
Answer: Its value is 9.

Question: What about the “Log Reduction” value [5] of the same compound?
Answer: The value was 6-7.

Question: What about the “Dark Toxicity” value ([6]; MRSA ATCC BAA-44, 0.1 μM) of the same compound?
Answer: The value was 2.85 × 10^8 ± 8.05 × 10^7 CFU/mL.

Question: And the “Light Toxicity” value ([6]; MRSA ATCC BAA-44, 0.1 μM)?
Answer: The value was 2.00 × 10^3 ± 4.00 × 10^2 CFU/mL.

Question: What about the “Dark Toxicity” value ([6]; MRSA ATCC BAA-44, 0.5 μM) of the same compound?
Answer: Its value is 2.93 × 10^8 ± 2.14 × 10^7 CFU/mL.

Question: And the “Light Toxicity” value ([6]; MRSA ATCC BAA-44, 0.5 μM)?
Answer: Its value is 3.33 × 10^1 ± 5.77 × 10^1 CFU/mL.

Question: And the “Dark Toxicity” value ([6]; MRSA ATCC BAA-44, 1.0 μM)?
Answer: The value was 1.05 × 10^8 ± 9.07 × 10^6 CFU/mL.

Question: And the “Light Toxicity” value ([6]; MRSA ATCC BAA-44, 1.0 μM)?
Answer: The value was “None detected (<100 CFU/mL)”.

Question: What about the “Dark Toxicity” value ([6]; MRSA ATCC BAA-44, 5.1 μM) of the same compound?
Answer: The value was 4.34 × 10^5 ± 5.04 × 10^5 CFU/mL.

Question: What about the “Light Toxicity” value ([6]; MRSA ATCC BAA-44, 5.1 μM) of the same compound?
Answer: The value was “None detected (<100 CFU/mL)”.

Question: And the “Dark Toxicity” value ([6]; MRSA ATCC BAA-1717, 0.1 μM)?
Answer: The value was 5.10 × 10^7 ± 5.29 × 10^6 CFU/mL.

Question: And the “Light Toxicity” value ([6]; MRSA ATCC BAA-1717, 0.1 μM)?
Answer: The value was 4.43 × 10^3 ± 1.33 × 10^3 CFU/mL.

Question: What about the “Dark Toxicity” value ([6]; MRSA ATCC BAA-1717, 0.5 μM) of the same compound?
Answer: The value was 4.03 × 10^6 ± 1.5 × 10^6 CFU/mL.

Question: And the “Light Toxicity” value ([6]; MRSA ATCC BAA-1717, 0.5 μM)?
Answer: Its value is 4.0 × 10^2 ± 3.61 × 10^2 CFU/mL.

Question: And the “Dark Toxicity” value ([6]; MRSA ATCC BAA-1717, 1.0 μM)?
Answer: Its value is 1.06 × 10^6 ± 8.39 × 10^4 CFU/mL.

Question: What about the “Light Toxicity” value ([6]; MRSA ATCC BAA-1717, 1.0 μM) of the same compound?
Answer: The value was “None detected (<100 CFU/mL)”.

Question: And the “Dark Toxicity” value ([6]; MRSA ATCC BAA-1717, 5.1 μM)?
Answer: The value was 7.53 × 10^5 ± 1.12 × 10^5 CFU/mL.

Question: What about the “Light Toxicity” value ([6]; MRSA ATCC BAA-1717, 5.1 μM) of the same compound?
Answer: Its value is “None detected (<100 CFU/mL)”.

Question: And the “log reduction in the concentration of CFUs” value ([6]; 1 μM)?
Answer: Its value is 1 log.

Question: And the “log reduction in the concentration of CFUs” value ([6]; 5 μM)?
Answer: The value was 3 log.

Question: And the PDT ([6]; TABLE 6)?
Answer: Its PDT is <1-log reduction.

Question: And the “viable MRSA cells after photodynamic therapy” value ([6]; from 100,000,000 viable MRSA cells, 2 minutes of white light irradiation)?
Answer: The value was 0.

Question: What about the MIC [7] of the same compound?
Answer: The MIC was > 200 µM.

Question: And the MIC [8]?
Answer: The MIC was > 100 µM.

Question: Which results are given for `Brc1ccc(/N=N/c2c[nH]c3ccccc23)cc1` [Compound 8]?
Answer: killing of VRE in conjunction with antibiotics [9]: more effective at killing VRE; MIC [1, 10]: 15 µM (≈ 4.5 µg/mL); MIC ([1]; MRSA isolate ATCC 33591, read-out: MIC): 3.1 to 6.3 µM (≈ 0.93 to 1.89 µg/mL); MIC [1, 11]: 15 µM (≈ 4.5 µg/mL); MIC ([1]; MRSA isolate ATCC BAA-1707, read-out: MIC): 6.3 µM (≈ 1.89 µg/mL); MIC ([1]; MRSA isolate ATCC BAA-1717, read-out: MIC): 6.3 µM (≈ 1.89 µg/mL); MIC ([1]; MRSA isolate ATCC BAA-1720, read-out: MIC): 6.3 µM (≈ 1.89 µg/mL); MIC ([1]; MRSA isolate ATCC BAA-1747, read-out: MIC): 6.3 µM (≈ 1.89 µg/mL); MIC ([1]; MRSA isolate ATCC BAA-1754, read-out: MIC): 12.5 µM (≈ 3.75 µg/mL); MIC ([1]; MRSA isolate ATCC BAA-1761, read-out: MIC): 12.5 µM (≈ 3.75 µg/mL); MIC ([1]; MRSA isolate ATCC BAA-1763, read-out: MIC): 6.3 µM (≈ 1.89 µg/mL); MIC ([1]; MRSA isolate ATCC BAA-1764, read-out: MIC): 12.5 µM (≈ 3.75 µg/mL); MIC ([1]; MRSA isolate ATCC BAA-1766, read-out: MIC): 12.5 µM (≈ 3.75 µg/mL); Log Reduction ([4]; compound 5 μM, Norfloxacin (25 μg/mL)): 2-3; Log Reduction ([4]; compound 5 μM, Oxacillin (50 μg/mL)): 3-4; MIC [7]: 2 µM (≈ 0.6 µg/mL); MIC [8]: > 100 µM

From patent US9834514B2, “Antibiotic sensitivity-restoring and photosensitive agents” (New Mexico Tech Research Foundation, priority 2015, dated 2017)
